Results from US6455587B1 (priority 2000, dated 2002).
Read-outs that look alike come from different tables or passages of the source.

Target: T1, recombinant HIV-1 protease (Human immunodeficiency virus type 1 group M subtype B, UniProt P04585)
T1 construct: recombinant HIV-1 protease (final concentration 2.18 nM) purchased from Bachem Bioscience; purchased Bachem Bioscience
Assay: Enzymatic fluorometric (FRET) assay for determining the inhibition constant (Ki) against HIV protease
Format: biochemical
Description: An Enzymatic assay for determining the inhibition constant (Ki) of synthetic compounds targeting the HIV protease may be carried out as follows: This is a fluorometric assay based on the cleavage by protease of a substrate carrying a donor group (EDANS) and an acceptor group (DABCYL) on each side of the cleavage site, interacting together through fluorescence resonance energy transfer (FRET). Cleavage of the substrate by protease stops energy exchange between the two groups, resulting in a time-dependent increase in fluorescence intensity that is linearly related to the extent of substrate hydrolysis.
The enzymatic assay is done at 31° C. in white 96-well fluorescence microplates, in a total volume of 200 μL per well. The apparatus used for analysis is a FL600 fluorescence microplate reader (Biotek Instruments). […] Excitation of the fluorophore is done at 340 nm and emission at 485 nm is recorded continuously during the reaction, allowing determination of the enzyme's initial velocity (v0). At the end of the 4 min incubation, the potential inhibitor at a defined concentration in a volume of 4 μL is added to the reaction, and fluorescence readings are taken for another 4 min, allowing determination of enzyme velocity (vi) in the presence of the inhibitory compound. Several concentrations of the putative inhibitors are tested in the assay. After calculation of v0 and vi, the inhibition constant (Ki) of the compound is determined using the equation of Henderson: [formula]
and [I]=inhibitor concentration, [S]=substrate concentration,
Km=Michaelis-Menten constant, Kiapp=apparent Ki
Graphs are traced and the Ki determined using GraphPad Prism software v. 3.0.

[1] = fluorometric FRET assay, recombinant HIV-1 protease, pH 4.7, 31° C., read-out: Ki
[2] = Ki (nM), fluorometric FRET assay, recombinant HIV-1 protease, pH 4.7, 31° C.
[3] = fluorometric FRET assay, 31° C., pH 4.7, recombinant HIV-1 protease 2.18 nM, substrate 10 μM, read-out: Ki

CCC(CC)CN([C@@H](CCCCNC(=O)OCc1ccccc1)C(=O)OCc1ccccc1)S(=O)(=O)c1ccc(C)cc1 [Compound 80]
Ki [1]: > 1250 nM

CC(C)CN([C@@H](CCCCNC(=O)C=Cc1cccc([N+](=O)[O-])c1)C(=O)O)S(=O)(=O)c1ccc([N+](=O)[O-])cc1 [Compound 108, Nα-Isobutyl-Nα-(4-nitrobenzenesulfonyl)-Nε-(3-nitrocinnamoyl)-L-lysine]
Ki [2]: > 300 nM

CC(C)CN([C@@H](CCCCNC(=O)CCc1ccccc1N)C(=O)O)S(=O)(=O)c1ccc(N)cc1 [Compound 122, Nα-Isobutyl-Nα-(4-aminobenzenesulfonyl)-Nε-(2-aminodihydrocinnamoyl)-L-lysine]
Ki [1]: > 300 nM

CC(C)CN([C@@H](CCCCNC(=O)CCc1ccc2c(c1)OCO2)C(=O)O)S(=O)(=O)c1ccc(N)cc1 [Compound 155, Nα-Isobutyl-Nα-(4-aminobenzenesulfonyl)-Nε-(3,4-methylenedioxydihydrocinnamoyl)-L-lysine]
Ki [1]: 15.7 nM

COc1cccc(C=CC(=O)NCCCC[C@@H](C(=O)O)N(CC(C)C)S(=O)(=O)c2ccc([N+](=O)[O-])cc2)c1 [Compound 162, Nα-Isobutyl-Nα-(4-nitrobenzenesulfonyl)-Nε-(3-methoxycinnamoyl)-L-lysine]
Ki [1]: > 300 nM

COc1ccccc1CCC(=O)NCCCC[C@@H](C(=O)O)N(CC(C)C)S(=O)(=O)c1ccc(N)cc1 [Compound 157, Nα-Isobutyl-Nα-(4-aminobenzenesulfonyl)-Nε-(2-methoxydihydrocinnamoyl)-L-lysine]
Ki [1]: 18.9 nM

CC(C)CN([C@@H](CCCCNC(=O)C=Cc1ccccc1[N+](=O)[O-])C(=O)O)S(=O)(=O)c1ccc([N+](=O)[O-])cc1 [Compound 109, Nα-Isobutyl-Nα-(4-nitrobenzenesulfonyl)-Nε-(2-nitrocinnamoyl)-L-lysine]
Ki [2]: > 300 nM

CC(C)CN([C@@H](CCCCNC(=O)CCCc1ccccc1)C(=O)O)S(=O)(=O)c1ccc(N)cc1 [Compound 121, Nα-Isobutyl-Nα-(4-aminobenzenesulfonyl)-Nε-(4-phenylbutanoyl)-L-lysine]
Ki [1]: > 300 nM

Cc1ccc(S(=O)(=O)N(CC(C)C)[C@@H](CCCCNC(=O)CCc2ccccc2)C(=O)O)cc1 [Compound 91]
Ki [1]: 8 nM

Cc1ccc(S(=O)(=O)N(CC(C)C)C(CCCCNC(=O)CC2c3ccccc3-c3ccccc32)C(=O)O)cc1 (stereo not drawn) [Compound 84]
Ki [1]: 89.7 nM

COc1cccc(CCC(=O)NCCCC[C@@H](C(=O)O)N(CC(C)C)S(=O)(=O)c2ccc(N)cc2)c1 [Compound 156, Nα-Isobutyl-Nα-(4-aminobenzenesulfonyl)-Nε-(3-methoxydihydrocinnamoyl)-L-lysine]
Ki [1]: 16.7 nM

Cc1ccc(S(=O)(=O)N(CC(C)C)C(CCCNC(=O)OCC2c3ccccc3-c3ccccc32)C(=O)O)cc1 (racemic) [Compound 6, Nα-Isobutyl-Nα-(4-methylbenzenesulfonyl)-Nδ-(9-fluorenylmethoxycarbonyl)-DL-ornithine]
Ki (Ki (nM)): 180 nM

CC(C)CN(C(CCCCNC(=O)OCc1ccccc1)C(=O)O)S(=O)(=O)c1ccc(Br)cc1 (stereo not drawn) [Compound 67]
Ki (Ki (nM)): > 100 nM

O=C(N[C@@H](CCCNS(=O)(=O)c1ccc([N+](=O)[O-])cc1)C(=O)O)OCC1c2ccccc2-c2ccccc21 [Compound 62, Nδ-(4-Nitrobenzenesulfonyl)-Nα-(9-fluorenylmethoxycarbonyl)-L-ornithine]
Ki [1]: 26200 nM

Nα-Isobutyl-Nα-(4-methylbenzenesulfonyl)-Nε-phenylthioacetyl-L-lysine [Compound 202]
Ki [3]: 18 nM | Ki [1]: 8400 nM

Nα-(4-Chlorobenzenesulfonyl)-Nδ-(9-fluorenylmethoxycarbonyl)-L-ornithine [Compound 74]
Ki [1]: > 25000 nM

O=C(N[C@@H](CNS(=O)(=O)c1ccc(Br)cc1)C(=O)O)OCC1c2ccccc2-c2ccccc21 [Compound 18, (S)-2-(9-Fluorenylmethoxycarbonylamino)-3-(4-bromobenzenesulfonylamino)-propanoic Acid]
Ki [1]: 75000 nM

Nε-(2,4,6-Triisopropylbenzenesulfonyl)-Nα-(9-fluorenylmethoxycarbonyl)-L-lysine [Compound 25]
Ki [1]: 15.4 nM

O=C(N[C@@H](CCCCNS(=O)(=O)c1cc(Cl)ccc1Cl)C(=O)O)OCC1c2ccccc2-c2ccccc21 [Compound 54, Nε-(2,5-Dichlorobenzenesulfonyl)-Nα-(9-fluorenylmethoxycarbonyl)-L-lysine]
Ki [1]: > 6250 nM

Cc1ccc(S(=O)(=O)NCCC[C@H](NC(=O)OCC2c3ccccc3-c3ccccc32)C(=O)O)cc1 [Compound 149, Nδ-(4-Methylbenzenesulfonyl)-Nα-(9-fluorenylmethoxycarbonyl)-L-ornithine]
Ki [1]: 10100 nM

O=C(N[C@@H](CCCCNS(=O)(=O)c1ccc(Cl)cc1)C(=O)O)OCC1c2ccccc2-c2ccccc21 [Compound 53, Nε-(4-Chlorobenzenesulfonyl)-Nα-(9-fluorenylmethoxycarbonyl)-L-lysine]
Ki [1]: 4800 nM

O=C(N[C@@H](CCCCNS(=O)(=O)c1ccc2ccccc2c1)C(=O)O)OCC1c2ccccc2-c2ccccc21 [Compound 32, Nε-(2-Naphthalenesulfonyl)-Nα-(9-fluorenylmethoxycarbonyl)-L-lysine]
Ki [1]: 10000 nM

COc1ccc(CCC(=O)NCCCC[C@@H](C(=O)O)N(CC(C)C)S(=O)(=O)c2ccc(N)cc2)c(OC)c1 [Compound 196, Nα-Isobutyl-Nα-(4-aminobenzenesulfonyl)-Nε-(2,4-dimethoxydihydrocinnamoyl)-L-lysine]
Ki [3]: 17.1 nM

O=C(N[C@@H](CCCCNS(=O)(=O)c1cccc(C(F)(F)F)c1)C(=O)O)OCC1c2ccccc2-c2ccccc21 [Compound 34, Nε-(3-Trifluoromethylbenzenesulfonyl)-Nα-(9-fluorenylmethoxycarbonyl)-L-lysine]
Ki [1]: 22000 nM

Cc1ccc(S(=O)(=O)N(CC(C)C)C(CCCCNC(CCc2ccccc2)=NC#N)C(=O)O)cc1 (racemic) [Compound 204, Nα-Isobutyl-Nα-(4-methylbenzenesuIfonyl)-Nε-(dihydrothiocinnamoyl-N-cyanoamidine)-DL-lysine]
Ki [3]: 34 nM | Ki [1]: > 200000 nM

COc1cccc(C=CC(=O)NCCCC[C@@H](C(=O)O)N(CC(C)C)S(=O)(=O)c2ccc([N+](=O)[O-])cc2)c1OC [Compound 110, Nα-Isobutyl-Nα-(4-nitrobenzenesulfonyl)-Nε-(2,3-dimethoxycinnamoyl)-L-lysine]
Ki [1]: > 300 nM

O=C(N[C@@H](CCCCNS(=O)(=O)c1ccc(Br)cc1)C(=O)O)C1c2ccccc2-c2ccccc21 [Compound 38, Nα-(9-Fluorenecarbonyl)-Nε-(4-bromobenzenesulfonyl)-L-lysine]
Ki [1]: 4700 nM

Nc1ccccc1S(=O)(=O)N[C@@H](CCCCNC(=O)OCC1c2ccccc2-c2ccccc21)C(=O)O [Compound 105, Nα-(2-Aminobenzenesulfonyl)-Nε-(9-fluorenylmethoxycarbonyl)-L-lysine]
Ki [1]: 16000 nM

COc1ccc(C=CC(=O)NCCCC[C@@H](C(=O)O)N(CC(C)C)S(=O)(=O)c2ccc([N+](=O)[O-])cc2)cc1 [Compound 113, Nα-Isobutyl-Nα-(4-nitrobenzenesulfonyl)-Nε-(4-methoxycinnamoyl)-L-lysine]
Ki [1]: > 300 nM

COC(=O)[C@H](CCCCNC(=O)OCC1c2ccccc2-c2ccccc21)N(CC(C)C)S(=O)(=O)c1ccc(C)cc1 [Compound 123, Nα-Isobutyl-Nα-(4-methylbenzenesulfonyl)-Nε-(9-fluorenylmethoxycarbonyl)-L-lysine Methyl Ester]
Ki [1]: > 300 nM

O=C(O)[C@H](CCCCN(Cc1ccc(F)cc1)S(=O)(=O)c1ccc(Br)cc1)NS(=O)(=O)c1ccc(Br)cc1 [Compound 60, Nα,Nε-di-(4-bromobenzenesulfonyl)-Nε-(4-fluorobenzyl)-L-lysine]
Ki [1]: > 50000 nM

CC(C)CN([C@@H](CCCCNC(=O)CCc1c[nH]c2ccccc12)C(=O)O)S(=O)(=O)c1ccc([N+](=O)[O-])cc1 [Compound 95, Nα-Isobutyl-Nα-(4-nitrobenzenesulfonyl)-Nε-(3-indolepropionyl)-L-lysine]
Ki [1]: 33.4 nM

NC(=O)C(CCCCNS(=O)(=O)c1ccc(Br)cc1)NC(=O)OCC1c2ccccc2-c2ccccc21 [Compound 20, (2R,2S)-(9-Fluorenylmethoxycarbonylamino)-6-(4-bromobenzenesulfonylamino)-1-hexanamide]
Ki [1]: 23000 nM

Cc1ccc(S(=O)(=O)N(CC(C)C)[C@@H](CCCCNC(=O)/C=C/c2ccccc2)C(=O)O)cc1 [Compound 90]
Ki [1]: 747 nM

Nα-Isobutyl-Nα-(4-nitrobenzenesulfonyl)-Nε-(4-nitrocinnamoyl)-L-lysine [Compound 111]
Ki [1]: 33 nM

Cc1ccc(S(=O)(=O)N(CC(C)C)[C@@H](CCCCNC(=O)CCc2c[nH]c3ccccc23)C(=O)O)cc1 [Compound 89]
Ki [1]: 6.9 nM

O=C(N[C@@H](CCCCNS(=O)(=O)c1ccccc1Br)C(=O)O)OCC1c2ccccc2-c2ccccc21 [Compound 24, Nε-(2-Bromobenzenesulfonyl)-Nα-(9-fluorenylmethoxycarbonyl)-L-lysine]
Ki [1]: 36000 nM
